In data set [1] the test system is human ileocecal colorectal adenocarcinoma cells (HCT-8). Put plainly: Fluorometric microculture cytotoxicity assay (FMCA), HCT-8. Type of data set: cell-based. As to conditions: HCT-8 cells; for cytostatic effect (alone): FMCA, 72 h. As for the experimental part:
(§1) HCT-8 cells were grown in RPMI 1640 medium with sodium pyruvate (1 mM) and 10% horse serum. SW620 were grown in ATCC-formulated Leibovitz's L-15 Medium with 10% fetal bovine serum. Cells were kept at 37° C. in a humidified atmosphere containing 5% carbon dioxide. The cells were harvested in the log-phase for experimental use. The fluorometric microculture cytotoxicity assay (FMCA) was used to investigate the cytostatic activity of oxaliplatin, MnDPDP or DPDP and combinations thereof. FMCA is based on measurement of fluorescence generated from hydrolysis of fluorescein diacetate (FDA) to fluorescein by cells with intact plasma membranes. Briefly, 96-well microtiter plates were freshly prepared with drug solutions in triplicates at 10 times the desired drug concentrations. Cell suspensions were seeded into the drug-prepared plates with 20 000 cells per well and plates were then incubated for 72 h. After incubation, the plates were washed, FDA was added, and after 50 min of incubation the fluorescence generated (excitation 480 nm) was measured at 538 nm in a fluorometer (Fluorostar Optima, BMG Technologies). The fluorescence is proportional to the number of cells with intact plasma membrane present in the well.

Data set [2] relates to normal retinal epithelia telomerase immortalized cells (hTERT-RPE1). Put plainly: Fluorometric microculture cytotoxicity assay (FMCA), hTERT-RPE1. Conditions: for cytostatic effect (alone): FMCA, 72 h. It counts as cell-based.
A short description of data set [3]: Fenton assay (competition with iron, H2DCF oxidation). As to conditions: FIG. 4. As for the experimental part:
By permitting the chelator DPDP, the metal complexes MnDPDP and MnPLED to compete with iron in the Fenton assay, the stability of MnDPDP and MnPLED was compared.
H2O2 (100 μM) was added to initiate the production of hydroxyl radicals (HO.). The latter oxidize H2DCF (non-fluorescent 2′,7′-dichlorodihydrofluorescein; 5 μM) to fluorescent DCF (2′,7′-dichlorofluorescein). H2DCF was obtained by hydrolysing its acetate ester (H2DCF-DA)]. […] DPDP, MnDPDP and MnPLED at various concentrations were assayed for their iron-chelating capacity. Fluorescence was measured in an FL600 Microplate Fluorescence reader (Bio-Tek, Winooski, Vt., U.S.A.) at ex 485 nm and em 530 nm.

Data set [4] has as its system human adenocarcinoma cells (SW620). Description: Fluorometric microculture cytotoxicity assay (FMCA), SW620. It counts as cell-based. Conditions: for cytostatic effect (alone): FMCA, 72 h. On the procedure:
as §1

For data set [5] the following is noted: from the reported stability constants.
Data set [6] deals with human colon cancer SW480 cells. Conditions: 24 h, MTT. As for the experimental part:
(§2) The viability of cells was measured using the MTT assay. Briefly, 20,000 SW480 or J774 cells were seeded per well on a 96-well plate and grown over night in Dulbecco's Modified Eagle's Medium (DMEM) containing 10% fetal bovine serum, 2 mM L-glutamine, 100 Ul/ml penicillin and 100 μg/ml streptomycin at 37° C. in humidified air with 5% CO2. Cells were then exposed for 24 h to 50 μM MnDPDP, 50 μM DPDP or 10 μM oxaliplatin at 37° C. The effect of combining 50 μM DPDP with 10 μM oxaliplatin on viability was also tested. The viability of the cells was then assessed by adding 5 mg/ml methylthiazoletetrazolium (MTT) to a final concentration of 0.5 mg/ml and incubating cells for a further 4 h at 37° C. The blue formazan that is formed by mitochondrial dehydrogenases of viable cells was then dissolved over night at 37° C. by adding 10% SDS and 10 mM HCl to a final concentration of 5% SDS and 5 mM HCl. Finally, the absorbance of the solution was read at 570 nm with a reference at 670 nm in a microplate reader Spectramax 340 (Molecular Devices, Sunnyvale, Calif., USA) connected to an Apple Macintosh computer running the program Softmax Pro V1.2.0 (Molecular Devices, Sunnyvale, Calif., USA).

In data set [7] the test system is murine lymphoma J774 cells. As to conditions: 24 h, MTT. As for the experimental part: as §2
For data set [8] the following is noted: Rocklage et al., 1989; cited from earlier work.
The conditions of data set [9]: Rocklage et al., 1989; cited from earlier work. The source holds these as a separate data set.
The conditions of data set [10]: Rocklage et al., 1989; cited from earlier work. This is another data set of the same source.
The conditions of data set [11]: pigs, ten minutes after injection; cited from earlier work.
For data set [12] the following is noted: cited from earlier work.
Another data set has as its system infarct size. As to conditions: pigs; MnPLED 3 μmol/kg; cited from earlier work.

Consider `Cc1ncc(COP(=O)(O)O)c(CN(CCN(CC(=O)O)Cc2c(COP(=O)(O)O)cnc(C)c2O)CC(=O)O)c1O` [DPDP, N,N′-bis-(pyridoxal-5-phosphate)-ethylenediamine-N,N′-diacetic acid], for which the “potentiation of the cytostatic effects of oxaliplatin” value in data set [1] (100 μM with 8 μM oxaliplatin, FMCA 72 h, FIG. 3C) is “significantly (unpaired t-test) potentiated”; in data set [2] (100 μM with 8 μM oxaliplatin, FMCA 72 h, FIG. 3D), “but not in normal cells”; in data set [4] (100 μM with 8 μM oxaliplatin, FMCA 72 h, FIG. 3B), “significantly (unpaired t-test) potentiated”. In addition, the “cytostatic effect (alone)” value in data set [1], in [2] and in data set [4] was “Neither MnDPDP nor DPDP demonstrated any cytostatic effect” each time. For the same compound, the “inhibition of the Fenton reaction” value in data set [3] (10 μM ferric iron, 100 μM cysteine, 100 μM H2O2) is listed as “inhibited the Fenton reaction in a dose-dependent manner”. For the same compound, the “concentration at which inhibition of the Fenton reaction started” value in [3] (10 μM ferric iron) is 0.1 µM. The “concentration at which inhibition of the Fenton reaction was complete” value in [3] (10 μM ferric iron) was 10 µM. For the same compound, the “how much more readily Mn^2+ dissociates than Zn^2+” value in data set [5] was “about 1000 times”. The “cytostatic activity in combination with oxaliplatin versus oxaliplatin alone” value in data set [6] (50 μM DPDP + 10 μM oxaliplatin) is “tendency, although not statistically significant (p<0.07), that DPDP in combination with oxaliplatin was more potent than oxaliplatin alone”; in [7] (50 μM DPDP + 10 μM oxaliplatin) it was “significantly more efficacious than oxaliplatin alone”. Also, the cytostatic activity entry in data set [6] (50 μM, unpaired t-test, FIG. 1) is “statistically significant more efficacious than that of 50 μM MnDPDP”; in data set [7] (50 μM, FIG. 2) it was “significantly more efficacious to kill the lymphoma cells than MnDPDP”.

With `O=C1[O][Pt]2([NH][C@@H]3CCCC[C@H]3[NH]2)[O]C1=O` [Oxaliplatin, oxaliplatin], the entries for the “cytostatic effect (alone)” value in data set [1], in [2] and in data set [4] were “concentrations-dependent cytostatic effect”, “only a slight effect at its highest concentration” and “concentrations-dependent cytostatic effect”, respectively.

Consider `Cc1ncc(CO)c(CN(CCN(CC(=O)O)Cc2c(CO)cnc(C)c2O)CC(=O)O)c1O` [PLED, N,N′-dipyridoxyl ethylenediamine-N,N′-diacetic acid], for which, in [8], the “stability constant with Fe^3+ (ferric iron)” value is 36.88 logK. Further, in data set [9], the “stability constant with Mn^2+” value is on record as 12.56 logK. In addition, the “stability constant with Zn^2+” value in data set [10] is 16.68 logK. In [5], the “how much more readily Mn^2+ dissociates than Zn^2+” value was “about 1000 times”.

With MnDPDP, the “cytostatic effect (alone)” value in data set [1], in [2] and in data set [4] was “Neither MnDPDP nor DPDP demonstrated any cytostatic effect” throughout. In data set [11], the “replacement of manganese with zinc” value is listed as “all manganese has been replaced with zinc”. Moreover, the administered manganese released result in [12] (humans, intravenous injection) is reported as “about 70%”. The “injected manganese that stays bound to the chelator” value in data set [12] (man, for a considerable amount of time) is recorded as “about 30%”. In addition, the “injected MnDPDP transformed into MnPLED” value in [12] (man, shortly after intravenous injection) is “about 30%”. The iron-chelating capacity result in data set [3] (Fenton assay) is recorded as “significantly higher than that of MnPLED”. In addition, the infarct size entry in the data set on infarct size is reported as “did not reduce the infarct size”.
